According to US20200079819A1, “Use of a Vaccine Targeting a Cryptic Tert Epitope, for Treating Lung Cancer in a HLA-A*0201-Positive Never-Smoker or Light-Former Smoker Patient” (Vaxon Biotech, priority 2017, published 2020):
No end group written: not given here.

System: HLA-A*0201 positive patients with NSCLC expressing TERT
Test: Vx-001-201 randomized double blind phase IIb clinical trial (OS, TTF, 12 months survival)
Type: in vivo, human
Conditions: for OS (months) / 12 months OS / 12 months OS (%) / Median TTF (months) / Median survival (months): Vx-001 arm; for HR (OS) / HR (TTF): Vx-001 vs placebo
Description: The Vx-001-201 study is a randomized, double blind multicenter study done in 70 centers in France, Germany, Spain, Italy, Greece, Poland, Romania and Czech Republic. Key eligibility criteria were a) non small cell lung cancer (NSCLC), b) stage IV or recurrent stage I-III, c) disease control after platinum based first line chemotherapy according to RECIST 1.1 criteria, d) HLA-A*0201 positivity, e) tumors expressing TElomerase Reverse Transcriptase (TERT), f) ECOG 0 or 1 g) absence of brain metastasis.
a) Principal endpoint: overall survival (OS) measured from randomization
b) Secondary endpoints: • Time to Treatment Failure (TTF) measured from randomization • OS at 12 months
Patients who fulfilled all inclusion criteria were randomized within 4 weeks after the end of first line chemotherapy.
The vaccination protocol consisted in six vaccinations at three weeks interval. The optimized Vx-001/TERT572Y was used in the first two vaccinations and the native Vx-001/TERT572 in the following four vaccinations. Patients who continued controlling their disease after the sixth vaccination received boost vaccination with the Vx-001/TERT572 every three months. Vaccination was stopped at disease progression (FIG. 1).
The primary and secondary endpoints were analysed in the Full Analysis Set composed of all patients who fulfilled the […] five main criteria a) NSCLC, b) stage IV or recurrent stage I-III, and c) disease control after first line chemotherapy, d) HLA-A*0201 positivity and e) TERT expressing tumors.
We used the Kaplan-Meier method to estimate OS and TTF in each arm and a Cox proportional hazards regression model to estimate Hazard Ratio (HR) relating OS and TTF to the treatment effect.

[1] = never-smokers and light-smokers (≤25 years, stopped or not), SQ (n = 14)
[2] = never-smokers and light-smokers (≤25 years, stopped or not), Stage IV (n = 51)
[3] = never-smokers and light-smokers (≤25 years, stopped or not), natural immunity No (n = 37)
[4] = never-smokers and light-smokers (≤25 years, stopped or not), natural immunity Yes (n = 15)
[5] = never-smokers and light-smokers (≤25 years, stopped or not), response to treatment OS (n = 28)
[6] = never-smokers and light-smokers (≤25 years, stopped or not), response to treatment SD (n = 32)
[7] = never-smokers or former light-smokers (≤25 years), <65 years (n = 24)
[8] = never-smokers or former light-smokers (≤25 years), >65 years (n = 31)
[9] = never-smokers or former light-smokers (≤25 years), CARBO (n = 37)
[10] = never-smokers or former light-smokers (≤25 years), CDDP (n = 18)
[11] = never-smokers or former light-smokers (≤25 years), Female (n = 23)
[12] = never-smokers or former light-smokers (≤25 years), MH + NSQ (n = 42)
[13] = never-smokers or former light-smokers (≤25 years), Male (n = 32)
[14] = never-smokers or former light-smokers (≤25 years), SQ (n = 13)
[15] = never-smokers or former light-smokers (≤25 years), natural immunity No (n = 33)
[16] = never-smokers or former light-smokers (≤25 years), natural immunity Yes (n = 14)
[17] = never-smokers or former light-smokers (≤25 years), response to chemotherapy OR (n = 26)
[18] = never-smokers or former light-smokers (≤25 years), response to chemotherapy SD (n = 29)
[19] = never-smokers or former light-smokers (≤25 years), stable disease SD after first-line chemotherapy (n = 29)

For “Vx-001: vaccine composed of two nine-amino-acid peptides, TERT572 (SEQ ID No: 1) and TERT572Y (SEQ ID No: 2), administered separately with adjuvant Montanide ISA51 VG (chain 1 RLFFYRKSV; chain 2 YLFFYRKSV; not fully specified)”, the “OS (months)” value [1] was 14.1 months, the “HR (OS)” value [1] was 0.81 and the “12 months OS” value [2] was 69.2%. The “OS (months)” value [2] was 16.2 months, the “HR (OS)” value [2] was 0.44 and the “12 months OS” value [3] was 83.0%. The “OS (months)” value [3] was 20.7 months, the “HR (OS)” value [3] was 0.27 and the “12 months OS” value [4] was 66.0%. The “OS (months)” value [4] was 15.3 months, the “HR (OS)” value [4] was 0.87 and the “12 months OS” value [5] was 63.6%. The “OS (months)” value [5] was 15.3 months, the “HR (OS)” value [5] was 0.91 and the “12 months OS” value [6] was 75.0%. The “OS (months)” value [6] was 24.7 months, the “HR (OS)” value [6] was 0.34 and the “12 months OS (%)” value [7] was 77%. The “Median TTF (months)” value [7] was 2.9 months, the “Median survival (months)” value [7] was 20.2 months and the “HR (OS)” value [7] was 0.46. For the same substance, the “HR (TTF)” value [7] was 1.07, the “12 months OS (%)” value [8] was 69.2% and the “Median TTF (months)” value [8] was 4.6 months. For the same substance, the “Median survival (months)” value [8] was 15.3 months, the “HR (OS)” value [8] was 0.64 and the “HR (TTF)” value [8] was 0.71. For the same substance, the “12 months OS (%)” value [9] was 64.7%, the “Median TTF (months)” value [9] was 2.9 months and the “Median survival (months)” value [9] was 15.3 months. For the same substance, the “HR (OS)” value [9] was 0.63, the “HR (TTF)” value [9] was 0.90 and the “12 months OS (%)” value [10] was 88.8%. For the same substance, the “Median TTF (months)” value [10] was 5.6 months, the “Median survival (months)” value [10] was 24.7 months and the “HR (OS)” value [10] was 0.50. The “HR (TTF)” value [10] was 0.87, the “12 months OS (%)” value [11] was 66.6% and the “Median TTF (months)” value [11] was 4.2 months. The “Median survival (months)” value [11] was 13.3 months, the “HR (OS)” value [11] was 0.89 and the “HR (TTF)” value [11] was 0.98. For the same substance, the “12 months OS (%)” value [12] was 73.7%, the “Median TTF (months)” value [12] was 4.2 months and the “Median survival (months)” value [12] was 16.2 months. For the same substance, the “HR (OS)” value [12] was 0.53, the “HR (TTF)” value [12] was 0.89 and the “12 months OS (%)” value [13] was 78.6%. The “Median TTF (months)” value [13] was 2.9 months, the “Median survival (months)” value [13] was 24.7 months and the “HR (TTF)” value [13] was 0.82. The “12 months OS (%)” value [14] was 71.4%, the “Median TTF (months)” value [14] was 2.9 months and the “Median survival (months)” value [14] was 14.1 months. The “HR (OS)” value [14] was 0.89, the “HR (TTF)” value [14] was 0.81 and the “12 months OS (%)” value [15] was 82.3%. The “Median TTF (months)” value [15] was 5.6 months, the “Median survival (months)” value [15] was 20.7 months and the “HR (TTF)” value [15] was 0.43. For the same substance, the “12 months OS (%)” value [16] was 66.6%, the “Median TTF (months)” value [16] was 2.4 months and the “Median survival (months)” value [16] was 15.3 months. The “HR (OS)” value [16] was 0.90, the “HR (TTF)” value [16] was 1.86 and the “12 months OS (%)” value [17] was 72.7%. For the same substance, the “Median TTF (months)” value [17] was 2.8 months, the “Median survival (months)” value [17] was 15.3 months and the “HR (OS)” value [17] was 0.96. For the same substance, the “HR (TTF)” value [17] was 1.33, the “Median TTF (months)” value [18] was 3.6 months and the “HR (TTF)” value [18] was 0.58. For the same substance, the “12 months OS (%)” value [19] was 73.3%, the “Median survival (months)” value [19] was 24.7 months and the “Effect on OS (in words)” value (never/light-smokers (≤25 years, stopped or not), Table 7 population) was “significantly prolonged OS”.
